Columns and labels:
[1] = Relative inhibition of PDE1 from bovine heart and PDE5 from human platelets
[2] = Relative inhibition of PDE2 from rat kidney and PDE5 from human platelets
[3] = biological target: Phosphodiesterase 3 and 5 (PDE3 and PDE5) (Homo sapiens) (UniProt O76074+Q14432+Q13370); test: Relative inhibition of PDE3 and PDE5 from human platelets
[4] = Relative inhibition of PDE4 from rat kidney and PDE5 from human platelets
[5] = Relative inhibition of PDE6 from bovine retina and PDE5 from human platelets
[6] = biological target: cGMP-specific 3',5'-cyclic phosphodiesterase (Homo sapiens, UniProt O76074); test: Inhibition of Phosphodiesterase 5 from human platelets
[7] = Half life of compound was determined in male dogs; format: ADME, organism-based, Canis lupus familiaris; conditions: dog, in vivo
[8] = Half life of compound was determined in male rats; format: ADME, organism-based; conditions: rat, in vivo
[9] = Bioavailability in dog (male); format: ADME, organism-based, Canis lupus familiaris; conditions: in vivo
[10] = Bioavailability in rat (male); format: ADME, organism-based; conditions: in vivo
[11] = Relaxant effect mediated by PDE5 inhibition in rabbit corpus cavernosum; format: functional, tissue-based, Oryctolagus cuniculus
Oryctolagus cuniculus = organism: Oryctolagus cuniculus; test: Increased mean blood pressure in rabbit corpus carvenosum; format: functional

Structure (SMILES)	Ratio [1]	Ratio [2]	Ratio [3]	Ratio [4]	Ratio [5]	IC50 [6] [nM]	half-life [7] [h]	half-life [8] [h]	bioavailability [9] [%]	bioavailability [10] [%]	EC50 [11] [nM]	ED50 (Oryctolagus cuniculus) [µmol/kg]
CCn1ncc2c3c(NCc4ccc(OC)c(Cl)c4)nnc(N4CCC(O)CC4)c3cnc21	5700	4000	7500	300	80							
CCn1ncc2c3c(NCc4ccc(OC)c(Cl)c4)nnc(-n4cnc(C(=O)NC)c4)c3cnc21	> 10000	> 10000		> 10000	150	0.3	2	1.2	42	29	13	0.1
CCn1ncc2c3c(NCc4ccc(OC)c(Cl)c4)nnc(N4CCC(C(=O)O)CC4)c3cnc21	> 10000	> 10000	> 10000	7500	30	0.03						
CCCc1nn(C)c2c(=O)[nH]c(-c3cc(S(=O)(=O)N4CCN(C)CC4)ccc3OCC)nc12											19	0.11

Now from value to compound, other results behind:

Ratio [1]	Ratio [2]	Ratio [3]	Ratio [4]	Ratio [5]	IC50 [6] [nM]	half-life [7] [h]	half-life [8] [h]	bioavailability [9] [%]	bioavailability [10] [%]	EC50 [11] [nM]	Structure (SMILES)	ED50 (Oryctolagus cuniculus) [µmol/kg]
> 10000	> 10000	> 10000	4000	210	0.1						CCn1ncc2c3c(NCc4ccc(OC)c(Cl)c4)nnc(NCc4ccncc4)c3cnc21	
6400	9200		600	47							CCn1ncc2c(NCc3ccc(OC)c(Cl)c3)c(C(=O)NCc3ccncc3)cnc21	

From ChEMBL document CHEMBL1145960, “Substituted pyrazolopyridopyridazines as orally bioavailable potent and selective PDE5 inhibitors: potential agents for treatment of erectile dysfunction” (J Med Chem, 2003)
